The values below come from patent US20240116985A1, “STAPLED PEPTIDES AND METHODS THEREOF” (priority 2020, published 2024).

In series [1] the target is T1, full-length beta-Catenin (Uniprot ID P35222) (Homo sapiens, UniProt P35222).
T1 construct: 10 nM full-length beta-Catenin (Uniprot ID P35222)
T1 sequence (P35222 1-781): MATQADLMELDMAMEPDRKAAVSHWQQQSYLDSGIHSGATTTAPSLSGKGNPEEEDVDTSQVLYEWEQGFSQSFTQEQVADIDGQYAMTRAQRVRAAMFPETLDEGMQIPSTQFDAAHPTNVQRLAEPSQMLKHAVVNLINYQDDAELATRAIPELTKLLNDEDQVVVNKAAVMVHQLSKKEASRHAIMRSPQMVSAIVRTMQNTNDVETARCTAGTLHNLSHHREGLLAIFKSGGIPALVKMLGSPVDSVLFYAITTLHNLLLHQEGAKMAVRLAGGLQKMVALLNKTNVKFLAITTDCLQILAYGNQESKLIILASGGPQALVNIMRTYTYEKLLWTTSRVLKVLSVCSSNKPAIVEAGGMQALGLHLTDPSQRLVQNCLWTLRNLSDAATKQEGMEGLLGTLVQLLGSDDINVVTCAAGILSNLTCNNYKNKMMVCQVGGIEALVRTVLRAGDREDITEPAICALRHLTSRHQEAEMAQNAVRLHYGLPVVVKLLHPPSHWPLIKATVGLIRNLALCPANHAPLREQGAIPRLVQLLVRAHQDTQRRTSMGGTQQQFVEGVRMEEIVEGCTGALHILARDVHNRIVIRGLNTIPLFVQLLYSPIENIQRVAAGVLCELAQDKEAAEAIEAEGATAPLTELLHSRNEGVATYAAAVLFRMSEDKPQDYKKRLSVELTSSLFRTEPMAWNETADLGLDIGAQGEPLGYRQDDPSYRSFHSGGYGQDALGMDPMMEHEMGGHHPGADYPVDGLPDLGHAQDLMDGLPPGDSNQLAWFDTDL
The series is described as follows: Fluorescence polarization IC50 (beta-catenin / 5FAM-TCF4 10-53 competition). It counts as binding.

A short description of another series: CHI Log D procedure. Format: physicochemical. As to conditions: for CHI Log D: pH 7.4; for chromatographic logD: pH 7.4, CHI Log D.
The next series can be described thus: Solubility in PBS. Format: physicochemical. Summed up: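 PBS sample ultracentrifuged; supernatant run on HPLC vs. 50 μM peptide in DMSO standard. Solubility = (PBS peak area / DMSO peak area) × 50 uM.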
Setting [2] is: fluorescence polarization, read-out: beta-Catenin FP IC50.

Converted amounts (≈) assume the structure as drawn. Where two headings read alike, the source gives them in different places.

Take `CC(=O)N1CCC[C@]12CC=CCCCC1(CCCC=CCCCCCC[C@@](C)(C(=O)N[C@@H](Cc3ccsc3)C(=O)N[C@@H](Cc3csc4ccccc34)C(=O)N[C@@H](CCC(N)=O)C(N)=O)NC(=O)[C@H](CCC(N)=O)NC(=O)[C@H](Cc3ccccc3)NC(=O)[C@H](C)NC(=O)[C@H](C)NC(=O)[C@H](CCC(=O)O)NC(=O)[C@H](CC(=O)O)NC1=O)NC(=O)[C@H](C)NC(=O)[C@H](CC(=O)O)NC2=O` (stereo partly drawn) [I-426, Ac-PL3-Asp-Ala-B5-Asp-Glu-Ala-Ala-Phe-Gln-S8-3Thi-BztA-Gln-NH2]: the IC50 in series [1] (setting [2]) and in series [1] (read-out: FP EC50) was 109 nM in each case. Moreover, the “CHI Log D” value in “CHI Log D procedure” is on record as 1.959. Besides, in “Solubility in PBS”, the “Solubility” value turned out to be 33 µM (≈ 61 µg/mL).
For the compound `CC(=O)N1CCC[C@]12CC=CCCCC1(CCCC=CCCCCCC[C@@](C)(C(=O)N[C@@H](Cc3ccsc3)C(=O)N[C@@H](Cc3csc4ccccc34)C(=O)N[C@@H](CCC(N)=O)C(N)=O)NC(=O)[C@H](CCC(N)=O)NC(=O)[C@H](Cc3ccccc3)NC(=O)[C@H](C)NC(=O)[C@H](C)NC(=O)[C@H](CCC(=O)O)NC(=O)[C@H](CC(=O)O)NC1=O)NC(=O)[C@H](C)NC(=O)[C@H](CC(=O)O)NC2=O` (stereo partly drawn) [I-427, Ac-PL3-Asp-Ala-B5-Asp-Glu-Ala-Ala-Phe-Gln-S8-3Thi-BztA-Gln-NH2], the IC50 in series [1] (setting [2]) and in series [1] (read-out: FP EC50) was 38.5 nM throughout. Further, in “CHI Log D procedure”, the “CHI Log D” value came to 1.985. Also, in the series “Solubility in PBS”, the “Solubility” value worked out at 50 µM (≈ 92.4 µg/mL).
As to `CC(=O)N1CCC[C@]12CC=CCCCC1(CCCC=CCCCCCC[C@@](C)(C(=O)N[C@@H](Cc3cccs3)C(=O)N[C@@H](Cc3csc4ccccc34)C(=O)N[C@@H](CCC(N)=O)C(N)=O)NC(=O)[C@H](CCC(N)=O)NC(=O)[C@H](Cc3ccccc3)NC(=O)[C@H](C)NC(=O)[C@H](C)NC(=O)[C@H](CCC(=O)O)NC(=O)[C@H](CC(=O)O)NC1=O)NC(=O)[C@H](C)NC(=O)[C@H](CC(=O)O)NC2=O` (stereo partly drawn) [I-428, Ac-PL3-Asp-Ala-B5-Asp-Glu-Ala-Ala-Phe-Gln-S8-2Thi-BztA-Gln-NH2], in series [1] (setting [2]), the IC50 was 60 nM. In “CHI Log D procedure”, this compound came in with a chromatographic logD of 1.99. Besides, in “Solubility in PBS” (Solubility (uM)), the concentration in solution (Solubility) was 14 µM (≈ 25.9 µg/mL).
Consider `CC(=O)N1CCC[C@]12CC=CCCCC1(CCCC=CCCCCCC[C@@](C)(C(=O)N[C@@H](Cc3cccc(F)c3)C(=O)N[C@@H](Cc3csc4ccccc34)C(=O)N[C@@H](CCC(N)=O)C(N)=O)NC(=O)[C@H](CCC(N)=O)NC(=O)[C@H](Cc3ccsc3)NC(=O)[C@H](C)NC(=O)[C@H](C)NC(=O)[C@H](CCC(=O)O)NC(=O)[C@H](CC(=O)O)NC1=O)NC(=O)[C@H](C)NC(=O)[C@H](CC(=O)O)NC2=O` (stereo partly drawn) [I-429, Ac-PL3-Asp-Ala-B5-Asp-Glu-Ala-Ala-3Thi-Gln-S8-3FF-BztA-Gln-NH2], for which the IC50 in series [1] (setting [2]) was 146 nM. The compound also returned a chromatographic logD in the series “CHI Log D procedure” of 2.07. Moreover, the “Solubility” value in “Solubility in PBS” was found to be 50 µM (≈ 93.3 µg/mL).
Regarding `CC(=O)N1CCC[C@]12CC=CCCCC1(CCCC=CCCCCCC[C@@](C)(C(=O)N[C@@H](Cc3cccc(F)c3)C(=O)N[C@@H](Cc3csc4ccccc34)C(N)=O)NC(=O)[C@H](CCC(N)=O)NC(=O)[C@H](Cc3ccsc3)NC(=O)[C@H](C)NC(=O)[C@H](C)NC(=O)[C@H](CCC(=O)O)NC(=O)[C@H](CC(=O)O)NC1=O)NC(=O)[C@H](C)NC(=O)[C@H](CC(=O)O)NC2=O` (stereo partly drawn) [I-431, Ac-PL3-Asp-Ala-B5-Asp-Glu-Ala-Ala-3Thi-Gln-S8-3FF-BztA-NH2], the IC50 in series [1] (setting [2]) worked out at 1320 nM. For the same compound, the chromatographic logD in the series “CHI Log D procedure” is 2.23. In “Solubility in PBS” (Solubility (uM)), this compound yielded a Solubility of 33 µM (≈ 57.3 µg/mL).
In the same order, the values of `CC(=O)N1CCC[C@]12CC=CCCCC1(CCCC=CCCCCCC[C@@](C)(C(=O)N[C@@H](Cc3ccccc3)C(=O)N[C@@H](Cc3csc4ccccc34)C(N)=O)NC(=O)[C@H](CC(N)=O)NC(=O)[C@H](Cc3ccccc3)NC(=O)[C@H](C)NC(=O)[C@H](C)NC(=O)[C@H](CCC(=O)O)NC(=O)[C@H](CC(=O)O)NC1=O)NC(=O)[C@H](C)NC(=O)[C@H](CC(=O)O)NC2=O` (stereo partly drawn) [I-432, Ac-PL3-Asp-Ala-B5-Asp-Glu-Ala-Ala-Phe-Asn-S8-Phe-BztA-NH2] are 145 nM, 2.23 and 23 µM (≈ 39.1 µg/mL).
The corresponding values for `COC[C@@H]1NC(=O)[C@H](Cc2ccccc2)NC(=O)[C@H](C)NC(=O)[C@H](C)NC(=O)[C@H](CCC(=O)O)NC(=O)[C@H](CC(=O)O)NC(=O)C2(CCCC=CCCCCCC[C@@](C)(C(=O)N[C@@H](Cc3ccccc3)C(=O)N[C@@H](Cc3csc4ccccc34)C(=O)N[C@@H](CCC(N)=O)C(N)=O)NC1=O)CCCC=CC[C@]1(CCCN1C(C)=O)C(=O)N[C@@H](CC(=O)O)C(=O)N[C@@H](C)C(=O)N2` (stereo partly drawn) [I-433, Ac-PL3-Asp-Ala-B5-Asp-Glu-Ala-Ala-Phe-S(OMe)-S8-Phe-BztA-Gln-NH2] are 136 nM, 2.08 and 39 µM (≈ 70.7 µg/mL).
The corresponding values for `CC(=O)N1CCC[C@]12CC=CCCCC1(CCCC=CCCCCCC[C@@](C)(C(=O)N[C@@H](Cc3ccccc3F)C(=O)N[C@@H](Cc3csc4ccccc34)C(=O)N[C@@H](CCC(N)=O)C(N)=O)NC(=O)[C@H](CC(N)=O)NC(=O)[C@H](Cc3ccccc3)NC(=O)[C@H](C)NC(=O)[C@H](C)NC(=O)[C@H](CCC(=O)O)NC(=O)[C@H](CC(=O)O)NC1=O)NC(=O)[C@H](C)NC(=O)[C@H](CC(=O)O)NC2=O` (stereo partly drawn) [I-434, Ac-PL3-Asp-Ala-B5-Asp-Glu-Ala-Ala-Phe-Asn-S8-2FF-BztA-Gln-NH2] are 67.5 nM, 2.05 and 20 µM (≈ 36.9 µg/mL).
Regarding `CC(=O)N1CCC[C@]12CC=CCCCC1(CCCC=CCCCCCC[C@@](C)(C(=O)N[C@@H](Cc3ccccc3Cl)C(=O)N[C@@H](Cc3csc4ccccc34)C(=O)N[C@@H](CCC(N)=O)C(N)=O)NC(=O)[C@H](CC(N)=O)NC(=O)[C@H](Cc3ccccc3)NC(=O)[C@H](C)NC(=O)[C@H](C)NC(=O)[C@H](CCC(=O)O)NC(=O)[C@H](CC(=O)O)NC1=O)NC(=O)[C@H](C)NC(=O)[C@H](CC(=O)O)NC2=O` (stereo partly drawn) [I-435, Ac-PL3-Asp-Ala-B5-Asp-Glu-Ala-Ala-Phe-Asn-S8-2C1F-BztA-Gln-NH2], the IC50 in series [1] (setting [2]) came out at 70 nM. The same compound gave a chromatographic logD in the series “CHI Log D procedure” of 2.13. Besides, in the series “Solubility in PBS”, the “Solubility” value worked out at 50 µM (≈ 93.1 µg/mL).
In the same order, the values of `CC(=O)N1CCC[C@]12CC=CCCCC1(CCCC=CCCCCCC[C@@](C)(C(=O)N[C@@H](Cc3ccccc3Br)C(=O)N[C@@H](Cc3csc4ccccc34)C(=O)N[C@@H](CCC(N)=O)C(N)=O)NC(=O)[C@H](CC(N)=O)NC(=O)[C@H](Cc3ccccc3)NC(=O)[C@H](C)NC(=O)[C@H](C)NC(=O)[C@H](CCC(=O)O)NC(=O)[C@H](CC(=O)O)NC1=O)NC(=O)[C@H](C)NC(=O)[C@H](CC(=O)O)NC2=O` (stereo partly drawn) [I-436, Ac-PL3-Asp-Ala-B5-Asp-Glu-Ala-Ala-Phe-Asn-S8-2BrF-BztA-Gln-NH2] are 56 nM, 2.16 and 50 µM (≈ 95.3 µg/mL).
As for `CC(=O)N1CCC[C@]12CC=CCCCC1(CCCC=CCCCCCC[C@@](C)(C(=O)NC(Cc3cncn3C)C(=O)N[C@@H](Cc3csc4ccccc34)C(=O)N[C@@H](CCC(N)=O)C(N)=O)NC(=O)[C@H](CC(N)=O)NC(=O)[C@H](Cc3ccccc3)NC(=O)[C@H](C)NC(=O)[C@H](C)NC(=O)[C@H](CCC(=O)O)NC(=O)[C@H](CC(=O)O)NC1=O)NC(=O)[C@H](C)NC(=O)[C@H](CC(=O)O)NC2=O` (stereo partly drawn) [I-438, Ac-PL3-Asp-Ala-B5-Asp-Glu-Ala-Ala-Phe-Asn-S8-3meH-BztA-Gln-NH2], in series [1] (setting [2]), the IC50 is 5000 nM. For the same compound, the chromatographic logD in “CHI Log D procedure” stood at 1.39. The solubility at 15 min in the series “Solubility in PBS” (Solubility (uM)) amounted to 46 µM (≈ 84.2 µg/mL).
With `CC(=O)N1CCC[C@]12CC=CCCCC1(CCCC=CCCCCCC[C@@](C)(C(=O)N[C@@H](Cc3ccccc3[N+](=O)[O-])C(=O)N[C@@H](Cc3csc4ccccc34)C(=O)N[C@@H](CCC(N)=O)C(N)=O)NC(=O)[C@H](CC(N)=O)NC(=O)[C@H](Cc3ccccc3)NC(=O)[C@H](C)NC(=O)[C@H](C)NC(=O)[C@H](CCC(=O)O)NC(=O)[C@H](CC(=O)O)NC1=O)NC(=O)[C@H](C)NC(=O)[C@H](CC(=O)O)NC2=O` (stereo partly drawn) [I-441, Ac-PL3-Asp-Ala-B5-Asp-Glu-Ala-Ala-Phe-Asn-S8-2NO2F-BztA-Gln-NH2], the IC50 in series [1] (setting [2]) amounted to 133 nM. In the series “CHI Log D procedure”, the chromatographic logD worked out at 2. The compound also yielded a Solubility in the series “Solubility in PBS” (Solubility (uM)) of 38 µM (≈ 71.1 µg/mL).
As for `CC(=O)N1CCC[C@]12CC=CCCCC1(CCCC=CCCCCCC[C@@](C)(C(=O)N[C@@H](CCc3ccccc3)C(=O)N[C@@H](Cc3csc4ccccc34)C(=O)N[C@@H](CCC(N)=O)C(N)=O)NC(=O)[C@H](CC(N)=O)NC(=O)[C@H](Cc3ccccc3)NC(=O)[C@H](C)NC(=O)[C@H](C)NC(=O)[C@H](CCC(=O)O)NC(=O)[C@H](CC(=O)O)NC1=O)NC(=O)[C@H](C)NC(=O)[C@H](CC(=O)O)NC2=O` (stereo partly drawn) [I-442, Ac-PL3-Asp-Ala-B5-Asp-Glu-Ala-Ala-Phe-Asn-S8-hPhe-BztA-Gln-NH2], the IC50 in series [1] (setting [2]) and in series [1] (read-out: FP EC50) was 4480 nM throughout. Also, the “CHI Log D” value in the series “CHI Log D procedure” came to 2.098. Further, in the series “Solubility in PBS”, the “Solubility” value was 40 µM (≈ 73.6 µg/mL).
